Measured values reported in article PMC12635197, “Discovery of first-in-class inhibitors of the TRF1:TIN2 protein:protein interaction by fragment screening” (Scientific Reports, 2025).
Where no end group is shown, it is not given here. FAM = 5(6)-carboxyfluorescein

T1: TRF1TRFH (Homo sapiens, UniProt P54274)
T1 construct: encoding residues 47–268, UniProt identifier P54274-1; His6-MBP (TEV-cleavable) (N, cleaved yes); made in house; host or cells: E. coli BL21-CodonPlus(DE3)-RIL
T1 sequence (P54274 47-268): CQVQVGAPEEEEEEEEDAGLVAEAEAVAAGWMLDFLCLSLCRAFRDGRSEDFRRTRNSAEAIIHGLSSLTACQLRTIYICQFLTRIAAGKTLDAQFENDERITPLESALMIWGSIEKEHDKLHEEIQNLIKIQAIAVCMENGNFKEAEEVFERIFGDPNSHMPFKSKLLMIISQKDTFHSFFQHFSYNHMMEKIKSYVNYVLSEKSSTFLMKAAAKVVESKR

T2: (StrepII)2-TEV-tagged TIN2, subunit of recombinant shelterin (UniProt Q9BSI4-1 1-451)
T2 construct: TIN2, gene NM_001099274.1, codon-optimised; a TEV site lies between tag and protein; The separately made control protein is called TIN2L; The discussion says that the complex carries a short peptidic tag on TIN2; source: Sf9, co-expressed with the other shelterin subunits (MultiBac baculovirus), purified (StrepTrap, serial SEC)
T2 sequence (looked up): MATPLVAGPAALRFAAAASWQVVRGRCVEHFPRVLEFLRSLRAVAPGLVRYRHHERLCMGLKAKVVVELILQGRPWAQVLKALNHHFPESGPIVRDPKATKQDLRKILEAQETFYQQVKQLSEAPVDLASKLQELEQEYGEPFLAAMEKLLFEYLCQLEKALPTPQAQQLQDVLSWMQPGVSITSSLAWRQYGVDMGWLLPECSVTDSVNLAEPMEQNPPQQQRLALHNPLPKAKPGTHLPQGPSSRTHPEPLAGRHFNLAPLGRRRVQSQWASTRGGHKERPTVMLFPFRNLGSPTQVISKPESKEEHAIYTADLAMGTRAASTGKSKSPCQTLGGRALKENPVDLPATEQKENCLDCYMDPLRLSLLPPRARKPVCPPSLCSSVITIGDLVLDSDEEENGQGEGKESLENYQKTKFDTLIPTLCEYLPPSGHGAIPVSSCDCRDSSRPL

T3: TRF1 (telomeric repeat-binding factor 1), full length, subunit of recombinant shelterin (human), P54274
T3 chain: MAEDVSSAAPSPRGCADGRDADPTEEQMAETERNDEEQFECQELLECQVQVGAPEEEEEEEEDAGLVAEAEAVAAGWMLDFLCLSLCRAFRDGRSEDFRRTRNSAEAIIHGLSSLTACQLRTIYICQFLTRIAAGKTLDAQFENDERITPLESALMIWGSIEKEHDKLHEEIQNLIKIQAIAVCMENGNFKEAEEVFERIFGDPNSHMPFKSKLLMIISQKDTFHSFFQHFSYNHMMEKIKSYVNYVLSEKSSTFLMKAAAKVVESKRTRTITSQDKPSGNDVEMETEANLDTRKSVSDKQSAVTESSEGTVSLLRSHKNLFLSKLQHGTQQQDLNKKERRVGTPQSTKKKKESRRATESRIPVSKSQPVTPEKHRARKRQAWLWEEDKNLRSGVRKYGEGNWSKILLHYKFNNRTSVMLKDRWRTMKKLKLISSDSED

T4: TRFH domain of TRF1 (TRF1_(TRFH)), residues 47–268 (human, UniProt P54274-1 47-268)
T4 construct: cDNA codon-optimised for E. coli; also called TRF homology (TRFH) domain; source: E. coli BL21-CodonPlus(DE3)-RIL, purified (HisTrap, TEV cleavage, second HisTrap, Superdex 200 SEC); not shown: His6, N-terminal, cleaved; MBP, N-terminal, cleaved
T4 sequence (looked up): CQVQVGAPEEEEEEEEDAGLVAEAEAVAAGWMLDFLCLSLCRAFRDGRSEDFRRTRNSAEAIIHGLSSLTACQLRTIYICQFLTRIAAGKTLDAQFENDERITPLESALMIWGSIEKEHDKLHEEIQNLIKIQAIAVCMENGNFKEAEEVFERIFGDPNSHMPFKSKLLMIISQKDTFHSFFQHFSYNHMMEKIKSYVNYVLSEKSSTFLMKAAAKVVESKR


What was measured:
[1] = molecular target: T1, TRF1TRFH; test: Crystal soaking of TRF1TRFH crystals; details: soaking into TRF1TRFH crystals; Supplementary Table 1
Description: Attempts to soak TRF1TRFH crystals with the commercially available analogues of the XChem hit 5 were also unsuccessful. Only one slightly smaller analogue (22) could be soaked into TRF1TRFH crystals, albeit with an ambiguous binding mode. […] In the case of compound 5, we observed a hydrogen bond between the amino group of the fragment and a backbone carbonyl in the neighbouring protein chain (Fig. 2i). […] Additionally, the pocket normally occupied by the conserved phenylalanine residue of the TIN2 F-X-L-X-P motif was fully obstructed by a crystal contact with a TRF1TRFH copy in an adjacent asymmetric unit, further limiting the possibility of obtaining XChem hits outside of the leucine pocket.
TRF1TRFH crystals in the P3_121 space group were grown by sitting drop vapour diffusion in SWISSCI 3-drop plates using similar crystallisation conditions to those described previously. The total drop volume was 300 nL, consisting of 150 nL of TRF1TRFH (31.2 mg/mL) and 150 nL of reservoir solution (1% PEG8000, 100 mM MES pH 6.0, 1–12 mM Mg(OAc)2, 10–15% glycerol), whilst the reservoir volume was 35 µL. Crystallisation plates were set up using an SPT Labtech mosquito Xtal2 liquid handler. Cuboid-shaped crystals grew to their maximum size (300 μm across) within 24 h. Crystals were cryoprotected through the addition of 180 nL of 40% glycerol to the crystal drop prior to harvesting, giving a final glycerol concentration of […] (accounting for the glycerol already in the crystallisation conditions). The crystals were then flash-frozen in liquid nitrogen, and data were collected at the Diamond Light Source beamlines I04 and I04-1 and processed automatically using the Xia2 Dials pipeline[53],[54]. The TRF1TRFH structure was solved by molecular replacement in Phaser MR[55] within CCP4[56] using the previously published TRF1TRFH structure as a search model (PDB: 1H6O)[31], after having first stripped the search model of solvent molecules and ligands. Structure refinement was done using Refmac[57] and Buster[36], and model correction and building was done using Coot 0.9.6[35].
The DSi-Poised library (768 fragment, Enamine)[32], the EUbOPEN DSiP extension library (108 fragments) and the FragLite library (31 fragments)[33] were screened against TRF1TRFH crystals. Compounds at 500 mM in DMSO stocks were dispensed into selected crystal drops as singletons using an Echo 550 liquid handler to give a final concentration of 50 mM (10% DMSO final concentration). After incubation for 1 h at 20 °C, 180 nL of glycerol (40% stock, final drop concentration 28.8–32.5%) were added to each drop immediately prior to crystal harvesting and flash-freezing in liquid nitrogen.
Data were collected on the I04-1 beamline at Diamond Light Source. […]

[2] = Fragment solubility assay (quantitative 1H NMR); assay type: physicochemical; details: Supplementary Table 1
Procedure: Aqueous solubility test samples were prepared by adding 3.6 µL compound (50 mM stock in 100% DMSO-d6) to 176.4 µL NMR buffer in a microcentrifuge tube. The samples were incubated overnight and transferred to a 3-mm NMR tube (Bruker, Part No. Z112272). ^1H NMR spectra were recorded, with the DMSO and water signals dampened. 1 mM caffeine (Sigma, C1778 in PBS (pH 7.4) with 1% DMSO-d6) was used as a standard to quantify the ligand signals and determine the concentration of samples.
NMR data were collected on a Bruker Avance Neo 600-MHz spectrometer equipped with a 5 mm TCI-CryoProbe. The ^1H spectrum was referenced to the internal deuterated solvent. The operating frequency for ^1H was 600 MHz. All NMR data were acquired at the temperature of 298 K. All data were acquired and processed using Bruker Topspin 4.0. The quantitative ^1H-NMR spectrum was acquired using a Bruker standard 1D lc1pngppsf2 pulse sequence with 32 scans. The sweep width was 6.2 ppm with O1P set to 8.8 ppm, and the FID contained 16k time-domain data points. Relaxation delay was set to 20 s. Water signal was suppressed.

[3] = molecular target: T1, TRF1TRFH; test: LO-NMR CPMG assay (relaxation-edited), singletons; assay type: binding; details: single experiment; for CPMG reduction: average peak intensity reduction on addition of TRF1TRFH, 250 µM ligand, 20 µM protein; for CPMG recovery: net recovery of peak intensity on addition of TIN2TBM peptide (40 µM) to compound plus protein
Procedure: We next used a LO-NMR CPMG assay to orthogonally validate XChem hits in solution, aiming to eliminate false positives and rank hit matter for follow-up studies. Compounds were tested as singletons and prepared in two samples containing either compound alone (sample 1) or compound + TRF1TRFH (sample 2).
The fragment screen by LO-NMR was carried out using conditions described previously, with some modifications. Fragments were dispensed in triplicate into a 384-well plate using an Echo 550 liquid handler to give a final ligand concentration of 250 µM (total sample volume of 40 µL). 40 µL of TRF1TRFH protein (in NMR buffer; 20 µM final protein concentration in the assay) were added to the ‘protein’ samples; 40 µL of TRF1TRFH protein and TIN2TBM peptide (21-mer, Ac-[…]-CONH2; 40 µM final concentration in the assay) were both added to the ‘competitor’ samples; 40 µL NMR buffer were added to the ‘compound-only’ samples. Solutions were transferred to 1.7-mm NMR tubes using a Bruker SamplePro Tube robotics system. ^1H NMR spectra were recorded on a Bruker AVIII 500 MHz spectrometer at 298 K, equipped with a 1.7-mm TXI probe, with samples in 1.7-mm SampleJET NMR tubes (Bruker). DMSO and water signals were dampened. A relaxation spin filter was applied at 400 ms. Data were processed using Bruker Topspin 4.0. Lines were broadened with LB = 3.0, and the baseline was corrected between 6.0 and 10.0 ppm.
The data were then analysed using the MNova Screen software. Only peaks between 5.5 and 9.5 ppm were considered. Peaks with a height of < 5% maximum peak height within the region of interest were considered noise, and the minimum matched peak level was set at > 51%. The relative peak intensity change (I) was calculated for all peaks in the 5.5–9.5 ppm region, for each compound, as described previously. The average integral for all peaks between 6.0 and 10.0 ppm was calculated, and the differences between compound-only, compound-plus-protein, and compound-plus-protein-plus-competitor samples were compared. The net recovery was calculated by subtracting the reduction in peak integral of the compound-plus-protein samples from the compound-plus-protein-plus-competitor samples.
For hit validation, relaxation-edited LO-NMR experiments were repeated as described above on single compounds instead of fragment cocktails.

[4] = molecular target: TIN2 TBM (Homo sapiens) (UniProt Q9BSI4); details: cited from earlier work
[5] = molecular target: T2, (StrepII)2-TEV-tagged TIN2, subunit of …; test: mass photometry; SEC-purified shelterin without compound; complex of around 700 kDa; 50 mM HEPES-NaOH pH 8.0, 300 mM NaCl; details: both partners purified
[6] = molecular target: T3, TRF1 (telomeric repeat-binding factor …); test: mass photometry; SEC-purified shelterin 1.25 µM incubated 1 h at room temperature with 100-300 µM compound 40, cross-linked with 0.1% glutaraldehyde, diluted to 50 nM; details: remark: other sources report otherwise
[7] = molecular target: T4, TRFH domain of TRF1 (TRF1_(TRFH)), …; test: ligand-observed NMR (CPMG / R2 relaxation) competition; fragment 250 µM with 20 µM TRF1_(TRFH), with or without 40 µM TIN2TBM peptide as competitor; NMR buffer; 298 K; details: both partners purified
[8] = molecular target: T4, TRFH domain of TRF1 (TRF1_(TRFH)), …; test: fluorescence polarisation; direct titration: TRF1_(TRFH) 20 to 0.02 µM (11 points) against 25 nM TIN2-FAM; 25 mM HEPES-NaOH pH 7.5, 100 mM NaCl, 1 mM TCEP, 0.05% w/v CHAPS; 1 h at room temperature; details: both partners purified

Row | Crystal structure [1] | Aq. Sol. [2] | CPMG reduction [3] | CPMG recovery [3] | Molecule | other results
1 | No | 190 µM | 14% | 12% | COc1cc2nc(N)sc2cc1OC [Compound 21] | –
2 | Yes | 790 µM | 18% | 9% | COc1ccc2sc(C)nc2c1 [Compound 22] | –
3 | No | 400 µM | 28% | 11% | Nc1nc2cc3c(cc2s1)OCO3 [Compound 24] | –
4 | – | – | – | – | TRF1 TRFH (from UniProt P54274) | Kd [4]: 300 nM
5 | – | – | – | – | TRF1 (telomeric repeat-binding factor 1), full length, subunit of recombinant shelterin (natural protein, human, UniProt P54274-1 1-439, looked up, TRF1, gene NM_017489.2, codon-optimised; the UniProt identifier is printed for the TRFH construct of the same protein; Further details of the shelterin construct 'to be reported elsewhere'; also called full-length TRF1) MAEDVSSAAPSPRGCADGRDADPTEEQMAETERNDEEQFECQELLECQVQVGAPEEEEEEEEDAGLVAEAEAVAAGWMLDFLCLSLCRAFRDGRSEDFRRTRNSAEAIIHGLSSLTACQLRTIYICQFLTRIAAGKTLDAQFENDERITPLESALMIWGSIEKEHDKLHEEIQNLIKIQAIAVCMENGNFKEAEEVFERIFGDPNSHMPFKSKLLMIISQKDTFHSFFQHFSYNHMMEKIKSYVNYVLSEKSSTFLMKAAAKVVESKRTRTITSQDKPSGNDVEMETEANLDTRKSVSDKQSAVTESSEGTVSLLRSHKNLFLSKLQHGTQQQDLNKKERRVGTPQSTKKKKESRRATESRIPVSKSQPVTPEKHRARKRQAWLWEEDKNLRSGVRKYGEGNWSKILLHYKFNNRTSVMLKDRWRTMKKLKLISSDSED | stoichiometry N [5]: 2 TRF1 per TIN2; stoichiometry N [6]: 2
6 | – | – | – | – | Ac-RHFNLAPLGRRRVQSQWASTR-NH2 (limits worked out from L260 of the F-X-L-X-P motif) [TIN2TBM peptide (21-mer, Ac-RHFNLAPLGRRRVQSQWASTR-CONH2)] | binding result [7]: binds
7 | – | – | – | – | {FAM}-RHFNLAPLGRRRVQSQWASTR [TIN2TBM peptide labelled with an N-terminal 5(6)-carboxyfluorescein (TIN2-FAM)] | Kd [8]: 400 nM
